Series [1] deals with Gli1 protein. In words: Gli1 knockdown in RH-30 cells, Western blot. It counts as cell-based, Human. Conditions: 6 μM cargo with 5 μM FSD250, 2 minutes, 24 h. The method, then: A Gli1 knock-down experiment was performed generally as described in Example 6 to compare shuttle agent-mediated transduction of an unmodified PMO versus a commercially available self-internalizing Vivo-Morpholino (VivoPMO), which is a PMO chemically modified with a terminal octa-guanidinium dendrimer to facilitate entry into cells. Briefly, RH-30 cells were contacted with a delivery mix of 6 μM of cargo (either PMO-Gli1 or VivoPMO-Gli1) in the presence or absence of 5 μM of the synthetic peptide shuttle agent FSD250 for 2 minutes in RPMI. Cells were then washed, incubated in complete medium and then collected for Gli1 protein expression analysis by Western blot after 24 h using an anti-Gli1 polyclonal Ab (Abcam ab273018, 150 kDa), an anti-GAPDH Ab (Abcam ab181602, 37 kDa), and anti-Rabbit HRP secondary Ab. […] Indeed, this is consistent with the manufacturer's recommended incubation time of 2-4 hours for VivoPMOs to achieve sufficient self-internalization via endocytosis. Regardless, the results in FIG. 10 highlight the vast difference in internalization kinetics between the slow endocytosis-dependent intracellular delivery of VivoPMOs versus the rapid and efficient PMO transduction observed using synthetic peptide shuttle agents.
Four different PMOs were designed and synthesized targeting different regions proximal to the region or start codon of the human Gli1 gene. […]

The subject of series [2] is Gli1 protein. In words: Gli1 protein level in cells isolated from treated tumor explants, cytofluorometry. Format: cell-based. The conditions noted are these: PMO-Gli1 and shuttle agent combination; between 24 and 48 hours of incubation; data not shown. The method, then:
Freshly obtained basal cell carcinoma-type tumors following Mohs-type surgery were incubated in complete DMEM culture medium on a wire mesh with the surface exposed to air. In order to allow the cargo to be delivered to the epidermis and dermis, the tumors were washed with PBS 1× and the stratum corneum of the explants is permeabilized with a Pantec PLEASE™ laser according to the following parameters: pore density 2.5%, 1 pulse/pore, Array Size 14 mm, depth pores 20 μm (4.9 J/cm^2, 0.8 W). The explants were then divided into two halves, one half was treated with a solution of PBS 1×-2% hydroxyethyl cellulose containing 25 μM of PMO-Gli1-Cy5 and 40 μM of FSD250, while the other half was treated with the same solution containing PMO-Gli1-cy5 only (without shuttle agent; control). […] 10 μm sections were transferred to coverslips and treated with ProLong™ Diamond for fluorescence microscopy analysis. […] The levels of Gli1 protein were measured by cytofluorometry at different times of culture following the fixation and labeling of the isolated dermal and epidermal cells with an anti Gli1-Alexa 647 antibody. Between 24 and 48 hours of incubation following the treatment of the tumors, the level of the Gli1 protein decreased considerably (50%) in cultured cells which were treated with the PMO-Gli1 and shuttle agent combination, measured by flow cytometry (data not shown).

Series [3] has as its system Gli1 protein. In words: Gli1 knock-down in DU145 cells, Western blot. Format: cell-based, Human. Conditions: 6 μM PMO. How it is done:
DU145 cells were trypsinized and plated (500 000 cells/well) in a 24 well-dish the day prior to the experiment. […] Cells were washed once with PBS and delivery mixes were added on cells for five minutes. Then, 2 mL of RPMI-1640 containing 10% FBS was added to the mix and removed. Untreated cells were incubated with RPMI-1640 only. Cells were incubated in fresh RPMI-1640 containing 10% FBS. Forty height hours later, medium was removed and cells were washed once with PBS prior to trypsinization. Cells were harvested, collected by centrifugation, washed, and resuspended with PBS. Then, PMO-FITC positive and PMO-FITC negative cells were sorted and collected by virtue of FACS (BD FACS Aria Fusion). FITC-positive and FITC-negative cell samples were collected by centrifugation and resuspended in 50 μL protein extraction RIPA buffer (150 mM NaCl, 1% Nonidet™ P-40, 0.1% SDS, 0.5% Sodium deoxycholate, 25 mM Tris). Total protein concentrations were measured with a BCA protein assay kit. For all conditions, 10 μg of proteins were prepared at a final volume of 40 μL with 4× Laemmeli and RIPA buffer. Protein samples were then heated at 90° C. and separated through an 8% SDS-PAGE gel. Proteins were then transferred over night (25 volts) onto a […] PVDF membrane. Membranes were blocked using a 5% bovine serum albumin, Tris Buffer Saline, 0.1% Tween® 20 solution (5% BSA/TBS-T) for an hour. After blocking, the membrane was incubated for an hour with a 5% BSA/TBS-T solution containing anti alpha-Actinin (D6F6) primary antibody at a 1:1000. Alpha-Actinin protein present in the cell lysates served as loading control. Subsequently, the membranes were incubated over night with a 5% BSA/TBS-T solution containing anti-Gli1 primary antibody diluted 1:500. The membrane was then subjected to a 1-hour incubation at 1:5000 dilution of HRP-conjugated goat anti-rabbit secondary antibody 5% BSA/TBS-T solution. Chemiluminescence detection was performed using Clarity™ Western ECL Substrate and a ChemiDoc™ XRS apparatus. Gli1 and Alpha-Actinin densitometry was assessed using ImageJ™ software. […]

“PMO-Gli1: antisense PMO molecule designed to knock-down expression of the Gli1 protein; off-target control in the GFPd assay (antisense GTCATCGAGTTGAACATGGCGTCTC; all phosphorodiamidate morpholino (PMO))”: the “Knockdown of Gli1 protein” value in series [1] is on record as “Knockdown of Gli1 protein”. Further, in series [2], the “decrease of the level of the Gli1 protein” value is 50%. Further, the Gli1 protein expression entry was “knocked-down” in series [3] (3.75 μM FSD250, 48 hours) and “knocked-down” in series [3] (FITC+ cells vs FITC− cells, 5 μM FSD250, 48 hours).

These data come from US20230383291A1, “PEPTIDE-BASED TRANSDUCTION OF NON-ANIONIC POLYNUCLEOTIDE ANALOGS FOR GENE EXPRESSION MODULATION” (FELDAN BIO INC., priority 2020, published 2023).
